Converted amounts (≈) assume the structure as drawn.
What was measured:
Type in all cases: functional, cell-based
B16-F10 = experiment: Cytotoxic activity against B16F10 mouse melanoma cells
DA-3 cell line = experiment: Cytotoxic activity against DA-3 mouse mammary adenocarcinoma cells
HT-29 = experiment: Cytotoxic activity against HT-29 human colon adenocarcinoma cells
KB [1] = experiment: Cytotoxic activity against KBV vinblastine resistant KB cells; settings: Homo sapiens
KB [2] = experiment: Cytotoxic activity against KB human nasopharyngeal carcinoma cells
KB [3] = experiment: Cytotoxic activity against Human nasopharyngeal KB cell line

| Compound | IC50 (B16-F10) [nM] | IC50 (DA-3 cell line) [nM] | IC50 (HT-29) [nM] | IC50 (KB [1]) [nM] | IC50 (KB [2]) [nM] | IC50 (KB [3]) [ng/mL] |
| --- | --- | --- | --- | --- | --- | --- |
| COc1ccc(C[C@H]2NC(=O)/C=C/C[C@@H](C/C=C/c3ccccc3)OC(=O)[C@H](CC(C)C)OC(=O)[C@H](C)CNC2=O)cc1Cl | > 10 | > 10 | > 10 | > 10 | > 10 | – |
| COc1ccc(C[C@H]2NC(=O)/C=C/C[C@@H](C[C@H]3O[C@@H]3c3ccccc3)OC(=O)[C@H](CC(C)C)OC(=O)[C@H](C)CNC2=O)cc1 | > 10 | 3 | 4 | > 10 | 6 | – |
| COc1ccc(C[C@H]2NC(=O)/C=C/C[C@@H]([C@@H](C)[C@H]3O[C@@H]3c3ccccc3)OC(=O)[C@H](CC(C)C)OC(=O)[C@H](C)CNC2=O)cc1 | > 4 | > 10 | 3 | > 10 | > 10 | – |
| COc1ccc(C[C@H]2NC(=O)/C=C/C[C@@H](C(C#Cc3ccccc3)OS(C)(=O)=O)OC(=O)[C@H](CC(C)C)OC(=O)[C@@H](C)CNC2=O)cc1 (stereo partly specified) | > 10 | > 10 | > 10 | > 10 | > 10 | – |
| COc1ccc(C[C@H]2NC(=O)/C=C/C[C@@H]([C@@H](C)/C=C/c3ccccc3)OC(=O)[C@H](CC(C)C)OC(=O)[C@H](C)CNC2=O)cc1 | > 10 | > 10 | > 10 | > 10 | > 10 | – |
| COc1ccc(C[C@H]2NC(=O)/C=C/C[C@@H](C(=O)C#Cc3ccccc3)OC(=O)[C@H](CC(C)C)OC(=O)[C@H](C)CNC2=O)cc1 | > 10 | > 10 | > 10 | > 10 | > 10 | – |
| COc1ccc(C[C@H]2NC(=O)/C=C/C[C@@H](C(O)CCc3ccccc3)OC(=O)[C@H](CC(C)C)OC(=O)[C@H](C)CNC2=O)cc1 (stereo partly specified) | > 10 | > 10 | > 10 | > 10 | > 10 | – |
| COc1ccc(C[C@H]2NC(=O)/C=C/C[C@@H](C(=O)/C=C\c3ccccc3)OC(=O)[C@H](CC(C)C)OC(=O)CCNC2=O)cc1 | > 10 | > 10 | > 10 | > 10 | > 10 | – |
| COc1ccc(C[C@H]2NC(=O)/C=C/C[C@@H]([C@](C)(O)C#Cc3ccccc3)OC(=O)[C@H](CC(C)C)OC(=O)CCNC2=O)cc1 | > 10 | > 10 | > 10 | > 10 | > 10 | – |
| COc1ccc(C[C@H]2NC(=O)/C=C/C[C@@H](C(Br)C#Cc3ccccc3)OC(=O)[C@H](CC(C)C)OC(=O)CCNC2=O)cc1 (stereo partly specified) | > 10 | > 10 | > 10 | > 10 | > 10 | – |
| COc1ccc(C[C@H]2NC(=O)/C=C/C[C@@H]([C@H](C)[C@H]3O[C@@H]3c3ccccc3)OC(=O)[C@H](CC(C)C)OC(=O)[C@H](C)CNC2=O)cc1 | 0.3 | 0.2 | 0.3 | 0.8 | 0.3 | – |
| COc1ccc(C[C@H]2NC(=O)/C=C/C[C@@H](C(C#Cc3ccccc3)OS(C)(=O)=O)OC(=O)[C@H](CC(C)C)OC(=O)[C@H](C)CNC2=O)cc1 (stereo partly specified) | > 10 | > 10 | > 10 | > 10 | > 10 | – |
| COc1ccc(C[C@H]2NC(=O)/C=C/C[C@@H](C(=O)[C@H]3O[C@@H]3c3ccccc3)OC(=O)[C@H](CC(C)C)OC(=O)[C@H](C)CNC2=O)cc1 | > 10 | > 10 | > 10 | > 10 | > 10 | – |
| COc1ccc(C[C@H]2NC(=O)/C=C/C[C@@H](C(Br)C#Cc3ccccc3)OC(=O)[C@H](CC(C)C)OC(=O)[C@H](C)CNC2=O)cc1 (stereo partly specified) | > 10 | > 10 | > 10 | > 10 | > 10 | – |
| COc1ccc(C[C@H]2NC(=O)/C=C/C[C@@H]([C@](C)(O)/C=C\c3ccccc3)OC(=O)[C@H](CC(C)C)OC(=O)CCNC2=O)cc1 | > 10 | > 10 | > 10 | > 10 | > 10 | – |
| COc1ccc(C[C@H]2NC(=O)/C=C/C[C@@H](C(O)/C=C/c3ccccc3)OC(=O)[C@H](CC(C)C)OC(=O)CCNC2=O)cc1 (stereo partly specified) | > 10 | > 10 | > 10 | > 10 | > 10 | – |
| COc1ccc(C[C@H]2NC(=O)/C=C/C[C@@H](C(O)C#Cc3ccccc3)OC(=O)[C@H](CC(C)C)OC(=O)CCNC2=O)cc1 (stereo partly specified) | > 10 | > 10 | > 10 | > 10 | > 10 | – |
| COc1ccc(C[C@H]2NC(=O)/C=C/C[C@@H]([C@H](C)/C=C/c3ccccc3)OC(=O)[C@H](CC(C)C)OC(=O)[C@H](C)CNC2=O)cc1 | > 10 | > 10 | > 10 | > 10 | > 10 | – |
| COc1ccc(C[C@H]2NC(=O)/C=C/C[C@@H](CCCc3ccccc3)OC(=O)[C@H](CC(C)C)OC(=O)CCNC2=O)cc1 | > 10 | > 10 | > 10 | > 10 | > 10 | – |

| Compound | IC50 (B16-F10) [nM] | IC50 (DA-3 cell line) [nM] | IC50 (HT-29) [nM] | IC50 (KB [1]) [nM] | IC50 (KB [2]) [nM] | IC50 (KB [3]) [ng/mL] |
| --- | --- | --- | --- | --- | --- | --- |
| COc1ccc(C[C@H]2NC(=O)/C=C/C[C@@H](C(=O)/C=C/c3ccccc3)OC(=O)[C@H](CC(C)C)OC(=O)CCNC2=O)cc1 | > 10 | > 10 | > 10 | > 10 | > 10 | – |
| COc1ccc(C[C@H]2NC(=O)/C=C/C[C@@H](CC#Cc3ccccc3)OC(=O)[C@H](CC(C)C)OC(=O)[C@@H](C)CNC2=O)cc1 | > 10 | > 10 | > 10 | > 10 | > 10 | – |
| COc1ccc(C[C@H]2NC(=O)/C=C/C[C@@H](C(C#Cc3ccccc3)OS(C)(=O)=O)OC(=O)[C@H](CC(C)C)OC(=O)CCNC2=O)cc1 (stereo partly specified) | > 10 | > 10 | > 10 | > 10 | > 10 | – |
| COc1ccc(C[C@H]2NC(=O)/C=C/C[C@@H](C(Br)C#Cc3ccccc3)OC(=O)[C@H](CC(C)C)OC(=O)[C@@H](C)CNC2=O)cc1 (stereo partly specified) | > 10 | > 10 | > 10 | > 10 | > 10 | – |
| COc1ccc(C[C@H]2NC(=O)/C=C/C[C@@H](C(O)/C=C/c3ccccc3)OC(=O)[C@H](CC(C)C)OC(=O)[C@H](C)CNC2=O)cc1 (stereo partly specified) | > 10 | > 10 | > 10 | > 10 | > 10 | – |
| COc1ccc(C[C@H]2NC(=O)/C=C/C[C@@H]([C@@](C)(O)/C=C\c3ccccc3)OC(=O)[C@H](CC(C)C)OC(=O)CCNC2=O)cc1 | > 10 | > 10 | > 10 | > 10 | > 10 | – |
| COc1ccc(C[C@H]2NC(=O)/C=C/C[C@@H]([C@H](C)/C=C/c3ccccc3)OC(=O)[C@H](CC(C)C)OC(=O)[C@H](C)CNC2=O)cc1Cl [CRYPTOPHYCIN 3] | 2 | 1 | 1 | 5 | 2 | 3 (≈ 4.69 nM) |
| COc1ccc(C[C@H]2NC(=O)/C=C/C[C@@H](C(=O)C#Cc3ccccc3)OC(=O)[C@H](CC(C)C)OC(=O)CCNC2=O)cc1 | > 10 | > 10 | > 10 | > 10 | > 10 | – |
| COc1ccc(C[C@H]2NC(=O)/C=C/C[C@@H](C(/C=C/c3ccccc3)OC(C)=O)OC(=O)[C@H](CC(C)C)OC(=O)[C@H](C)CNC2=O)cc1 (stereo partly specified) | > 10 | > 10 | > 10 | > 10 | > 10 | – |
| COc1ccc(C[C@H]2NC(=O)/C=C/C[C@@H](C(=O)C#Cc3ccccc3)OC(=O)[C@H](CC(C)C)OC(=O)[C@@H](C)CNC2=O)cc1 | > 10 | > 10 | > 10 | > 10 | > 10 | – |
| COc1ccc(C[C@H]2NC(=O)/C=C/C[C@@H](C/C=C/c3ccccc3)OC(=O)[C@H](CC(C)C)OC(=O)[C@H](C)CNC2=O)cc1 | > 10 | > 10 | > 10 | > 10 | > 10 | – |
| COc1ccc(C[C@H]2NC(=O)/C=C/C[C@@H](C(O)CCc3ccccc3)OC(=O)[C@H](CC(C)C)OC(=O)CCNC2=O)cc1 (stereo partly specified) | > 10 | > 10 | > 10 | > 10 | > 10 | – |
| COc1ccc(C[C@H]2NC(=O)/C=C/C[C@@H](C(=O)/C=C/c3ccccc3)OC(=O)[C@H](CC(C)C)OC(=O)[C@H](C)CNC2=O)cc1Cl | > 10 | > 10 | > 10 | > 10 | > 10 | – |
| COc1ccc(C[C@H]2NC(=O)/C=C/C[C@@H]([C@@](C)(O)C#Cc3ccccc3)OC(=O)[C@H](CC(C)C)OC(=O)CCNC2=O)cc1 | > 10 | > 10 | > 10 | > 10 | > 10 | – |
| COc1ccc(C[C@H]2NC(=O)/C=C/C[C@@H](C(=O)/C=C/c3ccccc3)OC(=O)[C@H](CC(C)C)OC(=O)[C@H](C)CNC2=O)cc1 | > 10 | > 10 | > 10 | > 10 | > 10 | – |
| COc1ccc(C[C@H]2NC(=O)/C=C/C[C@@H](C(O)C#Cc3ccccc3)OC(=O)[C@H](CC(C)C)OC(=O)[C@@H](C)CNC2=O)cc1 (stereo partly specified) | > 10 | > 10 | > 10 | > 10 | > 10 | – |
| COc1ccc(C[C@H]2NC(=O)/C=C/C[C@@H](CCCc3ccccc3)OC(=O)[C@H](CC(C)C)OC(=O)CCNC2=O)cc1Cl | > 10 | > 10 | > 10 | > 10 | > 10 | – |
| COc1ccc(C[C@H]2NC(=O)/C=C/C[C@@H](C(=O)CCc3ccccc3)OC(=O)[C@H](CC(C)C)OC(=O)CCNC2=O)cc1 | > 10 | > 10 | > 10 | > 10 | > 10 | – |

From ChEMBL document CHEMBL1128913, “Synthesis and in vitro cytotoxicity of cryptophycins and related analogs” (Bioorg Med Chem Lett, 1996)
